In patent US8574831B2, “Mutational profiles in HIV-1 reverse transcriptase correlated with phenotypic drug resistance” (Virco N.V., priority 2000, dated 2013):

Tested on: HIV with mutations in the HIV protease sequence
Assay: Phenotypic fold resistance to protease inhibitors, protease mutations 84A/84L/84C/54M/54L/54V in a background (Examples 8-13)
Assay type: cell-based, HIV-1
Procedure, shortened: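 Recombinant-virus phenotyping: patient-derived PR/RT sequences amplified by PCR and recombined in CD4+ T cells into an HXB2 proviral clone deleted for those sequences. Chimeric viruses grown across drug concentrations; IC50 determined, and fold-resistance expressed as IC50 ratio versus wild-type susceptible laboratory HIV-1 tested in parallel.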

## CC(C)(C)NC(=O)[C@@H]1C[C@@H]2CCCC[C@@H]2CN1C[C@@H](O)[C@H](Cc1ccccc1)NC(=O)[C@H](CC(N)=O)NC(=O)c1ccc2ccccc2n1 [Saquinavir, saquinavir]
Table 9 #1, protease genotype WT
  mean fold increase in resistance: 0.9 fold
Table 9 #2, protease genotype 10I
  mean fold increase in resistance: 0.9 fold
Table 9 #3, protease genotype 46I
  mean fold increase in resistance: 0.6 fold
Table 9 #4, protease genotype 46I + 84V
  mean fold increase in resistance: 2.5 fold
Table 9 #5, protease genotype 46I + 84A
  mean fold increase in resistance: 38.1 fold
Table 9 #6, protease genotype 10I + 46I
  mean fold increase in resistance: 0.5 fold
Table 9 #7, protease genotype 10I + 46I + 84V
  mean fold increase in resistance: 4.1 fold
Table 9 #8, protease genotype 10I + 46I + 84A
  mean fold increase in resistance: 48.2 fold
Table 9 #9, protease genotype 10L/I + 46I + 84A
  mean fold increase in resistance: 46.4 fold
Table 9 #10, protease genotype 10I + 46I + 84A
  mean fold increase in resistance: 42.8 fold
Table 9 #11, protease genotype 46I + 71V
  mean fold increase in resistance: 0.6 fold
Table 9 #12, protease genotype 46I + 71V + 84V/I
  mean fold increase in resistance: 0.6 fold
Table 9 #13, protease genotype 46I + 71V + 84A
  mean fold increase in resistance: 47.7 fold
Table 9 #14, protease genotype 10F + 46I + 71V
  mean fold increase in resistance: 1.9 fold
Table 9 #15, protease genotype 10I + 46I + 71V + 84V
  mean fold increase in resistance: 15.9 fold
Table 9 #16, protease genotype 10I + 46I + 71V + 84A
  mean fold increase in resistance: 48.2 fold
Table 9 #17, protease genotype 10V + 46I + 71T + 84A
  mean fold increase in resistance: 48.2 fold
Table 9 #18, protease genotype 10I + 46I + 71V + 77I
  mean fold increase in resistance: 1.3 fold
Table 9 #19, protease genotype 10I + 46I + 71V + 77I + 84V
  mean fold increase in resistance: 2.5 fold
Table 9 #20, protease genotype 10I + 46I + 71V + 77I + 84A
  mean fold increase in resistance: 47.1 fold
Table 9 #21, protease genotype 10I + 33L/I + 46I + 71V + 77V/I + 84A
  mean fold increase in resistance: 44.7 fold
Table 10 #1, protease genotype 10I + 36I + 71V
  mean fold increase in resistance: 1.6 fold
Table 10 #2, protease genotype 10I + 36I + 71I + 84V
  mean fold increase in resistance: 0.8 fold
Table 10 #3, protease genotype 10I + 36I + 71I + 84L
  mean fold increase in resistance: 10.2 fold
Table 11 #1, protease genotype WT
  mean fold increase in resistance: 0.9 fold
Table 11 #2, protease genotype 84V
  mean fold increase in resistance: 0.7 fold
Table 11 #3, protease genotype 84C
  mean fold increase in resistance: 26.4 fold
Table 11 #4, protease genotype 10I
  mean fold increase in resistance: 0.9 fold
Table 11 #5, protease genotype 10I + 84V
  mean fold increase in resistance: 2.7 fold
Table 11 #6, protease genotype 10I + 84C
  mean fold increase in resistance: 37.1 fold
Table 11 #7, protease genotype 77I
  mean fold increase in resistance: 0.3 fold
Table 11 #8, protease genotype 77I + 84V
  mean fold increase in resistance: 3.5 fold
Table 11 #9, protease genotype 77I + 84C
  mean fold increase in resistance: 18.1 fold
Table 11 #10, protease genotype 77I + 84C
  mean fold increase in resistance: 18.5 fold
Table 11 #11, protease genotype 10I + 24I + 36I + 46I + 71V + 84C
  mean fold increase in resistance: 46.4 fold
Table 12, V19263, genotype 77I
  Fold change in IC50: 0.3 fold
Table 12, V20160, genotype WT
  Fold change in IC50: 0.9 fold
Table 12, V021667, genotype 10I
  Fold change in IC50: 0.9 fold
Table 12, V030496, genotype 10I + 77I
  Fold change in IC50: 0.3 fold
Table 12, V048869, genotype 10I + 54M + 77I + 90M
  Fold change in IC50: 5.1 fold
Table 12, V048872, genotype 33F + 54M + 77I + 90M
  Fold change in IC50: 5.2 fold
Table 12, V048873, genotype 33F + 54M + 77I + 90M
  Fold change in IC50: 3.1 fold
Table 12, V048877, genotype 10I + 33F + 77I + 90M
  Fold change in IC50: 1.5 fold
Table 12, V048878, genotype 10I + 33F + 54M + 71V + 77I + 90M
  Fold change in IC50: 4.0 fold
Table 12, V048879, genotype 10I + 33F + 54M + 71V + 77I + 90M
  Fold change in IC50: 51.8 fold
Table 12, V048880, genotype 10I + 33F + 77I + 90M
  Fold change in IC50: 2.7 fold
Table 12, V052940, genotype 71V
  Fold change in IC50: 0.8 fold
Table 12, V052942, genotype 10I + 71V
  Fold change in IC50: 0.8 fold
Table 12, V052943, genotype 10I + 90M
  Fold change in IC50: 1.1 fold
Table 12, V052944, genotype 10I + 90M
  Fold change in IC50: 0.7 fold
Table 12, V052945, genotype 77I + 90M
  Fold change in IC50: 1.4 fold
Table 12, V052946, genotype 71V + 90M
  Fold change in IC50: 1.4 fold
Table 12, V052947, genotype 10I + 77I + 90M
  Fold change in IC50: 3.9 fold
Table 12, V052948, genotype 10I + 71V + 90M
  Fold change in IC50: 4.8 fold
Table 12, V052949, genotype 10I + 71V + 77I + 90M
  Fold change in IC50: 2.1 fold
Table 12, V052950, genotype 33F
  Fold change in IC50: 1.2 fold
Table 12, V052951, genotype 33F + 77I
  Fold change in IC50: 0.4 fold
Table 12, V052953, genotype 10I + 33F + 77I
  Fold change in IC50: 1.2 fold
Table 12, V052954, genotype 33F + 77I + 90M
  Fold change in IC50: 1.7 fold
Table 12, V052955, genotype 33F + 71V + 90M
  Fold change in IC50: 20.4 fold
Table 12, V052977, genotype 10I + 33F + 54M
  Fold change in IC50: 0.5 fold
Table 12, V052978, genotype 10I + 33F + 54M + 71V + 90M
  Fold change in IC50: 9.9 fold
Table 12, V052979, genotype 10I + 54M
  Fold change in IC50: 1.4 fold
Table 12, V052980, genotype 10I + 54M + 90M
  Fold change in IC50: 1.4 fold
Table 12, V052981, genotype 10I + 54M + 71V + 90M
  Fold change in IC50: 5.4 fold
Table 12, V052982, genotype 10I + 54M + 71V + 77I + 90M
  Fold change in IC50: 4.2 fold
Table 12, V053832, genotype 10I + 33F
  Fold change in IC50: 0.5 fold
